Results: patent US4845221A, “Serotonergic substituted piperazinyl tetralins” (American Home Products Corporation, priority 1988, dated 1989)
Entries after “also recorded” stand apart in the source; their conditions may differ.

Key:
[1] = test system: 5-HT1A (a serotonin receptor subtype); conditions: Middlemiss et al., European J. of Pharmacol. 90 151 (1983); cited from earlier work
[2] = test system: 5-HT1A serotonin receptor; conditions: cited from earlier work
[3] = biological target: T1, 5-HT-1A serotonin receptor (Rattus norvegicus, UniProt P19327); experiment: displacement of [3H]8-OH DPAT from the 5-HT-1A serotonin receptor; format: binding; conditions: for inhibition at 1 µM / Ki: [3H]8-OH DPAT; for inhibition at 1 µM: read-out: % Inhibition 1 μm 5 HT1A; for Ki: in parentheses after % inhibition, read-out: Ki 5 HT1A; for selectivity / separation of 5-HT1A vs D-2 binding (in words): 5-HT1A relative to D-2
T1 construct: 44: 1685-1696, 1985; from tissue
T1 sequence (P19327 1-422): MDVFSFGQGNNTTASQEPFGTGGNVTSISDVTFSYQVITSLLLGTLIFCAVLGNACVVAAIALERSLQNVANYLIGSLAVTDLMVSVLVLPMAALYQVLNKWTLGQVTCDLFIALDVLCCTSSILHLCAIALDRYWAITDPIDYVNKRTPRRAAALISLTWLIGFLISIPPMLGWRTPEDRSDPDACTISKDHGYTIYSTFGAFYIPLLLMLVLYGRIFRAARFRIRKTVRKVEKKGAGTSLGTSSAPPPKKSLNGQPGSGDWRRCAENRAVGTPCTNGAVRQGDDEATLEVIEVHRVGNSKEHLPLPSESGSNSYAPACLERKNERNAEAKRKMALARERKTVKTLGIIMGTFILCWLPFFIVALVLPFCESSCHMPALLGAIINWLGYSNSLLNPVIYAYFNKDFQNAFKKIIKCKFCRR
From the text: The serotonergic properties of the compounds of this invention were established by standard pharmacologically accepted procedures involving the measurement of the compound's ability to displace [^3 H]8-OH DPAT (dipropylaminotetralin) from the 5-HT-1A serotonin receptor by the procedure of Hall et al., J. Neurochem. 44: 1685-1696, 1985.

D-2 dopamine receptor = experiment: inhibition of 3H-spiroperidol binding, homogenized limbic brain tissue (D-2 dopamine receptor affinity); conditions: for % Inhibition 1 μM D-2: 3H-spiroperidol, limbic brain tissue
Procedure: The relatively low D-2 dopamine receptor affinity of the compounds of this invention was established by a modification of the procedure of Fields et al., Brain Res., 136, pp. 578-584 (1977) and Yamamura et al., eds. Neurotransmitter Receptor Binding, Raven Press, N.Y. (1978), wherein homogenized limbic brain tissue is incubated with ^3 H-spiroperidol and various concentrations of test compound, filtered, washed and shaken with Hydrofluor scintillation cocktail (National Diagnostics) and counted in a Packard 460 CD scintillation counter.

inhibition at 1 µM [3] [%] | Ki [3] [nM] | % Inhibition 1 μM D-2 (D-2 dopamine receptor) [%] | 5-HT1A binding/affinity (in words) [3] | D-2 dopamine receptor binding/affinity (in words) (D-2 dopamine receptor) | SMILES | 5-HT1A agonist activity (in words) [1] | 5-HT1A receptor affinity of known agents (in words) [2] | selectivity / separation of 5-HT1A vs D-2 binding (in words) [3]
87 |  | 72 |  | which property was retained | Oc1ccc2c(c1)CCC(N1CCN(c3cccc(C(F)(F)F)c3)CC1)C2 (stereo not shown) [Compound 10] |  |  | 
44 |  |  | marked reduction in 5-HT1A binding |  | COc1ccc2c(c1)CCC(N1CCN(c3ncccn3)CC1)C2 (stereo not shown) [Compound 11] |  |  | 
15 |  | 7 | negligible activity | negligible D-2 binding | Oc1ccc2c(c1)CCC(N1CCN(c3ncccn3)CC1)C2 (stereo not shown) [Compound 12] |  |  | 
97 |  | 65 |  | increased D- 2 binding markedly | COc1ccc2c(c1)CCC(N1CCN(c3cccc(C(F)(F)F)c3)CC1)C2 (stereo not shown) [Compound 9] |  |  | 
83 |  | 11 |  |  | COc1ccc2c(c1)CC(N1CCN(c3ncccn3)CC1)CC2 (stereo not shown) [Compound 8] |  |  | improved separation of properties with emphasis on 5-HT1A binding

Second part, the compound before the results:

SMILES | inhibition at 1 µM [3] [%] | Ki [3] [nM] | % Inhibition 1 μM D-2 (D-2 dopamine receptor) [%] | 5-HT1A binding/affinity (in words) [3] | D-2 dopamine receptor binding/affinity (in words) (D-2 dopamine receptor) | 5-HT1A agonist activity (in words) [1] | 5-HT1A receptor affinity of known agents (in words) [2] | selectivity / separation of 5-HT1A vs D-2 binding (in words) [3]
CCCN(CCC)C1CCc2cccc(O)c2C1 (stereo not shown) [8-OH DPAT, 8-hydroxy-2-(di-n-propylamino)-tetralin] |  |  |  |  |  | selective 5-HT1A (a serotonin receptor subtype) agonist activity | selective 5-HT1A serotonin receptor affinity | 
CC1(C)CC(=O)N(CCCCN2CCN(c3ncccn3)CC2)C(=O)C1 [gepirone] |  |  |  |  |  |  | selective 5-HT1A serotonin receptor affinity | 
Oc1cccc2c1CC(N1CCN(c3cccc(C(F)(F)F)c3)CC1)CC2 (stereo not shown) [Compound 2, 1-(1,2,3,4-tetrahydro-8-hydroxy-2-naphthalenyl)-4-[3-(trifluromethyl)phenyl]piperazine] | 100 | 14 | 46 |  |  |  |  | 
Oc1cccc2c1CC(N1CCN(c3ncccn3)CC1)CC2 (stereo not shown) [Compound 4, 2-[4-(1,2,3,4-tetrahydro-8-hydroxy-2-naphthalenyl)-1-piperazinyl]pyrimidine] | 91 | 109 | 0 |  |  |  |  | most selective serotonin receptor binding
COc1ccc2c(c1)CC(N1CCN(c3cccc(C(F)(F)F)c3)CC1)CC2 (stereo not shown) [Compound 6] | 77 |  | 49 | reduced 5-HT1A agonism | relative high dopamine receptor binding |  |  | unacceptable separation of properties
COc1ccccc1N1CCN(C2CCc3cccc(OC)c3C2)CC1 (stereo not shown) [Compound 5] | 4 |  | 72 | almost complete loss of serotonin receptor agonism | relatively high dopamine receptor binding |  |  | reverses the selective activity
O=C1CC2(CCCC2)CC(=O)N1CCCCN1CCN(c2ncccn2)CC1 [buspirone] |  |  |  |  |  |  | potent affinity; also recorded: selective 5-HT1A serotonin receptor affinity | 
COc1ccc2c(c1)CC(N1CCN(c3ccccc3OC)CC1)CC2 (stereo not shown) [Compound 7] | 93 |  | 65 |  | higher D-2 binding |  |  | 
O=C1c2ccccc2S(=O)(=O)N1CCCCN1CCN(c2ncccn2)CC1 [ipsapirone] |  |  |  |  |  |  | selective 5-HT1A serotonin receptor affinity | 
COc1cccc2c1CC(N1CCN(c3ncccn3)CC1)CC2 (stereo not shown) [Compound 3, 2-[4-(1,2,3,4-tetrahydro-8-methoxy-2-naphthalenyl)-1-piperazinyl]pyrimidine] | 84.6 | 63 | 3 |  |  |  |  | 
COc1cccc2c1CC(N1CCN(c3cccc(C(F)(F)F)c3)CC1)CC2 (stereo not shown) [Compound 1, 1-(1,2,3,4-tetrahydro-8-methoxy-2-naphthalenyl)-4-[3-(trifluoromethyl)phenyl]piperazine] | 97 | 11 | 5 |  |  |  |  | 
